Experimental findings from ChEMBL document CHEMBL1147194, “Synthesis and evaluation of galactofuranosyl N,N-dialkyl sulfenamides and sulfonamides as antimycobacterial agents” (2007) are described below.

Values after ≈ are worked out from the molar mass of the structure shown.

This assay relates to Mycolicibacterium smegmatis. Briefly: Antimycobacterial activity against Mycobacterium smegmatis ATCC 14468 after 72 hrs by broth microdilution assay. It counts as functional. The note with it: ATCC 14468, 72 h.

`CCCCCCN(CCCCCC)S[C@@H]1O[C@@H]([C@H](O)CO)[C@H](O)[C@H]1O`: the MIC is above 64 µg/mL.
`CCCCCCCCN(CCCCCCCC)S[C@@H]1O[C@@H]([C@H](O)CO)[C@H](O)[C@H]1O` yielded an MIC of 4 µg/mL (≈ 9.18 µM).
For `OC[C@@H](O)[C@@H]1O[C@@H](SN(Cc2ccccc2)Cc2ccccc2)[C@H](O)[C@H]1O`, the MIC turned out to be 16 µg/mL (≈ 40.9 µM).
In turn, `CCCCCCN(CCCCCC)S(=O)(=O)[C@@H]1O[C@@H]([C@H](O)CO)[C@H](O)[C@H]1O` registered an MIC of 64 µg/mL (≈ 156 µM).
The compound `CCCCCCCCCCN(CCCCCCCCCC)S(=O)(=O)[C@@H]1O[C@@H]([C@H](O)CO)[C@H](O)[C@H]1O` yielded an MIC above 32 µg/mL.
Next, `O=S(=O)([C@@H]1O[C@@H]([C@H](O)CO)[C@H](O)[C@H]1O)N(Cc1ccccc1)Cc1ccccc1`: above 64 µg/mL.
The compound `CCCCCCCCCCN(CCCCCCCCCC)S[C@@H]1O[C@@H]([C@H](O)CO)[C@H](O)[C@H]1O` returned an MIC of 1 µg/mL (≈ 2.03 µM).
With `CCCCCCCCN(CCCCCCCC)S(=O)(=O)[C@@H]1O[C@@H]([C@H](O)CO)[C@H](O)[C@H]1O` the figure was 2 µg/mL (≈ 4.28 µM).
